From EP0231671B1, “Gonatriene derivatives and process for preparing them” (MITSUBISHI KASEI CORPORATION, priority 1985, dated 1987)

Tested on: female rats
Assay: Anti-gonadotropic activity: ovary weight after 14 days of oral administration, test group compared with control group
Format: in vivo
Set-up: key: -: no effective; +: effective; ++: very effective
Details: suspended in 10 % ethanol-containing cotton seed oil, ovary weight vs control group
Method: Each compound obtained in Examples and suspended in a 10 % ethanol-containing cotton seed oil was orally administrated to female rats in a dose of 0.1, 1 or 10 mg/kg for 14 days. While, for the control group, only the cotton seed oil was orally administrated for the same period.
After the completion of the administration, the ovary of each rat was weighted. From the comparison of the weight in the test group with that in the control group, the anti-gonadotropic activity of the gonatriene compound of this invention was evaluated.

SMILES	anti-gonadotropic activity (0.1 mg/kg for 14 days)	anti-gonadotropic activity (10 mg/kg for 14 days)	anti-gonadotropic activity (1 mg/kg for 14 days)
C[C@]12C=CC3=C4CCC(=O)C=C4CC[C@H]3[C@@H]1CC[C@@]2(O)CCl [Example 1, 17α-chloromethyl-17β-hydroxy-13β-methyl-gona-4.9.11-triene-3-one]	-	++	
C[C@]12C=CC3=C4CCC(=O)C=C4CC[C@H]3[C@@H]1CC[C@@]2(O)CC#N [Example 2, 17α-cyanomethyl-17β-hydroxy-13β-methyl-gona-4,9,11-triene-3-one]	-	++	+
CC[C@]12C=CC3=C4CCC(=O)C=C4CC[C@H]3[C@@H]1CC[C@@]2(O)CC#N [Example 3, 17α-cyanomethyl-17β-hydroxy-13β-ethyl-gona-4,9,11-triene-3-one]	-	++	+
CC[C@]12C=CC3=C4CCC(=O)C=C4CC[C@H]3[C@@H]1CC[C@@]2(O)CCl [Example 4, 17α-chloromethyl-17β-hydroxy-13β-ethyl-gona-4,9,11-triene-3-one]	-	++	+
CC[C@]12C=CC3=C4CCC(=O)C=C4CC[C@H]3[C@@H]1CC[C@@]2(O)COC [Example 6, 17α-methoxymethyl-17β-hydroxy-13β-ethyl-gona-4,9,11-triene-3-one]		++	
CC[C@]12C=CC3=C4CCC(=O)C=C4CC[C@H]3[C@@H]1CC[C@@]2(O)CSC [Example 7, 17α-methylthiomethyl-17β-hydroxy-13β-ethyl-aona-4.9.11-triene-3-one]	-	++	
CC[C@]12C=CC3=C4CCC(=O)C=C4CC[C@H]3[C@@H]1CC[C@@]2(O)CSC#N [Example 9, 17α-thiocyanatemethyl-17β-hydroxy-13βethyl-gona-4,9,11-triene-3-one]		++	++
